Data on three compounds can be found in patent US20230210845A1, “DOSING METHODS FOR TREATMENT OF CARDIOVASCULAR CONDITIONS” (IMBRIA PHARMACEUTICALS, INC., priority 2020, published 2023).

Data set [1] can be described thus: clinical. Also noted: species or system human (healthy subjects). The note with it: human, in vivo, po, 35 mg.
Method: (§1) Each subject participated in only 1 group during the study.
(§2) The blood samples were taken via an indwelling intravenous catheter or by direct venipuncture. The exact times of blood sampling were recorded in the eCRF.
The nature of data set [2]: clinical. As to the method:
Subjects with R2 below 0.80 or %AUCextra>20% were not excluded from the dose-proportionality evaluation based on AUC0-inf. A point estimate and 95% CI were produced for the slope. […] Since there were only 2 dose levels in the MAD part, no dose-proportionality analysis was performed for the MAD part.

Data set [3] is described as follows: clinical. Type of data set: in vivo, human (healthy subjects). The note with it: plasma; for Tmax: human, oral, 150 mg, read-out: median tmax.
Method: Subjects from Group A4 of the SAD part were assigned to the integrated FE arm. After administration of the drug to fasting subjects in the SAD part, the FE arm used the same subjects and experimental procedures.
Before dosing, subjects fasted overnight for at least 10 hours following a snack on the evening before. Then, subjects received an FDA-defined high-fat breakfast that had to be consumed within 20 minutes. The entire breakfast had to be consumed by the subjects. Dosing occurred at 30 minutes after the start of breakfast. Following dosing, subjects fasted for 4 hours until lunch. During fasting, fluids other than water were not allowed.
Data set [4] in a line: SAD part: PK in urine (urinary excretion, renal clearance). Format: in vivo, human (healthy subjects). The note with it: for CL renal: human, urine, read-out: geometric mean renal clearance (CLR) (converted).
Method: Urine collection for PK was only conducted in the SAD part, but not in the second period of the FE group A4.
The subjects were instructed to empty their bladders completely before study drug administration and at the end of each collection interval. A blank urine sample was collected within 12 hours prior to study drug administration. The exact times of urine collection and the urine weight of the entire interval (before and after addition of any urine stabilizers, if used) were recorded in the eCRF.
Data set [5] in a line: SAD part (and integrated FE arm): safety and tolerability (TEAEs).
Method: as §1
(§3) AEs were recorded from (first) admission until completion of the follow-up visit. Any clinically significant observations in results of clinical laboratory, 12-lead ECGs, vital signs, or physical examinations were recorded as AEs.
(§4) A treatment-emergent AE (TEAE) was defined as any event not present prior to (the first) administration of the study drug or any event already present that worsened in either severity or frequency following exposure to the study drug.
(§5) At several time points before and after drug administration, subjects were asked nonleading questions to determine the occurrence of AEs. Subjects were asked in general terms about any AEs at regular intervals during the study. In addition, all AEs reported spontaneously during the course of the study were recorded. Details included description of the event, date and time of onset, date and time of end, total duration, severity, relationship to study drug, intervention, seriousness, and outcome. All answers were interpreted by the Investigator and were recorded in the eCRF. All AEs were classified according to the Medical Dictionary for Regulatory Activities (MedDRA; Version 22.0) for AEs.
(§6) The severity of the AEs was rated as mild, moderate, or severe; the relationship between the AEs and the study drug was indicated as none, unlikely, possibly, likely, or definitely. Adverse events assessed as possibly, likely, or definitely were considered related to the study drug; AEs assessed as none or unlikely were considered not related to the study drug.
Data set [6] is described as follows: FIH study: plasma PK, single and multiple dose results combined. The note with it: all blood samples of subjects that received IMB-1018972. Format: in vivo, human (healthy subjects).
Method: This was a double-blind, randomized, placebo-controlled study, consisting of a single ascending dose (SAD) part with integrated food effect (FE) arm, a multiple ascending dose (MAD) part, to assess the safety, tolerability, and PK of ascending single and multiple oral doses of IMB-1018972 (immediate-release [IR] formulation in the SAD and MAD parts).
as §2
Data set [7] can be described thus: 28-day dog toxicology study (NOAEL and exposure). The note with it: for AUC0-8×2: Day 26, IMB-1018972 200 mg/kg/day. Format: in vivo. As to the method: Based on the nonclinical toxicology data, it was considered that subjects in this clinical study were not at unreasonable risk of adverse effects. […] For a 60-kg individual, the NOAEL dose would be 6480 mg. With a 10-fold safety factor applied, this would allow for a maximum recommended starting dose (MRSD) of 648 mg/day.7,8 The planned starting dose in the current Phase 1 study was 50 mg, equivalent to 0.83 mg/kg/day for a 60-kg subject. This starting dose is less than 10% of the MRSD determined from the dog NOAEL and less than 1% of the dog NOAEL.
The relevant animal study was the 28-day dog study where the NOAEL for IMB-1018972 was 200 mg/kg/day.

A short description of data set [8]: MAD part: safety and tolerability (TEAEs). Type of data set: in vivo, human (healthy subjects).
Method: as §3, §4, §5, §6
Data set [9] can be described thus: FIH study overall safety (deaths, clinical laboratory, vital signs, ECG, telemetry, physical examination).
Method: AEs were recorded from (first) admission until completion of the follow-up visit. Any clinically significant observations in results of clinical laboratory, 12-lead ECGs, vital signs, or physical examinations were recorded as AEs. […]
Systolic and diastolic blood pressure and pulse were recorded after the subject had been resting for at least 5 minutes in the supine position. […] Body temperature and respiratory rate were measured subsequently.
The ECG was recorded using an ECG machine equipped with computer-based interval measurements (with no/minimal disturbance by procedures). The following ECG parameters were recorded: heart rate, PR-interval, QRS-duration, QT-interval, QTcF-interval, and the interpretation of the ECG profile by the Investigator.
Physical examination was performed according to PRA SOPs. In addition, body weight and height were measured according to PRA SOPs.
How the values of data set [10] were obtained:
Subjects received multiple oral doses of an IR formulation of IMB-1018972 or placebo once every 12 hours (q12h) for 14 consecutive days.
The doses were selected based upon the safety, tolerability, and PK data from the SAD part: • Group B1 multiple oral doses of an IR formulation of 150 mg IMB-1018972 (n=9) or matching placebo (n=3) twice daily (q12h) for 14 days; on Day 14 only a single morning dose was administered • Group B2: multiple oral doses of an IR formulation of 50 mg IMB-1018972 (n=9) or matching placebo (n=3) q12h for 14 days; on Day 14 only a single morning dose was administered
Before each morning dose, subjects fasted overnight for at least 10 hours following a snack on the evening before. On Days 1 and 14, subjects received a standardized breakfast that had to be consumed within 20 minutes. Dosing occurred at 30 minutes after the start of breakfast. Following dosing, subjects fasted for 4 hours until lunch. During fasting, fluids other than water were not allowed. On Days 2 to 13, breakfast was not standardized and was given within maximally 1 hour before dosing and consumed before dosing. No fasting after dosing was applicable on these days.

Where [11] appears, read: 150 mg IMB-1018972, fasted (FE group).
[12] abbreviates: 150 mg IMB-1018972, fed (FDA high-fat breakfast).
Setting [13] is: single oral dose 35 mg trimetazidine, all 4 TEAEs.

Read-outs that look alike come from different tables or passages of the source.

By AUC(0-inf) is commonly meant total exposure, with the tail of the curve extrapolated. Lower therefore signals less exposure. Usually AUC(0-t) stands for the area under the concentration-time curve up to a stated or last time point. Read a high AUC(0-t) as high exposure. One may read the Cmax as the maximum level reached in the sampled fluid or tissue. What is called half-life is the time needed for the level to fall by half in the phase considered. A higher half-life goes with slow loss. One may read the Tmax as the time from dosing to the highest level. For `COc1ccc(CN2CCNCC2)c(OC)c1OC` [trimetazidine], in “clinical [1]”, the AUC(0-inf) was determined as 929 ng·h/mL. Besides, the AUC(0-t) in the data set “clinical [1]” is 912 ng·h/mL. In addition, the highest level in the data set “clinical [1]” (Cmax) was 68.6 ng/mL. Moreover, the half-life in “clinical [1]” was 7.49 h; in “clinical [2]” (human, plasma, oral) it was 6.76 to 8 h. Further, the Tmax in “clinical [2]” (human, in vivo) was 1.5 to 2 h; in the data set “clinical [2]” (human, in vivo, po, 50 mg), 1 to 2 h; in the data set “clinical [3]” (setting [11]), 1.5 h; in the data set “clinical [3]” (setting [12]), 4 h. In addition, the “time postdose at which detectable concentrations generally seen” value in the data set “clinical [2]” (human, in vivo) was 15 to 30 min. Moreover, the CL renal in data set [4] (oral, range over single doses 50 mg to 400 mg IMB-1018972) is 302 to 347 mL/min; in data set [4] (po, 35 mg) it was 340 mL/min. The “arithmetic mean percent of the dose excreted in urine” value in data set [4] (within 48 hours after single oral dose of 35 mg trimetazidine) was determined as 54.47%. Further, the “total number of TEAEs” value in [5] (single oral dose 35 mg trimetazidine) was 4. Besides, in data set [5] (setting [13]), the “relationship of TEAEs to study drug” value is recorded as “not to be related to the study drug”. The “severity of TEAEs” value in [5] (setting [13]) is “mild severity”.

As to `COc1ccc(CN2CCN(CCOC(=O)c3cccnc3)CC2)c(OC)c1OC` [IMB-1018972], the “measurability of parent compound in plasma” value in [6] was “could be measured in only few plasma samples”. Further, the “maximum recommended starting dose (MRSD)” value in [7] (both, dog, in vivo, 28 days) is 648 mg/day. Further, the TEAEs of flushing entry in data set [8] (50 mg q12h fed) is listed as “No TEAEs of flushing were reported”. Moreover, the “number of TEAEs of flushing (incidental and mild)” value in data set [8] (150 mg q12h fed) came to 7. For the same compound, the “subjects with TEAEs of flushing” value in [8] (150 mg q12h fed (n=9)) is on record as 6. Also, the “subjects reporting drug-related TEAEs” value in data set [8] (MAD part (6 of 18)) is listed as 33.3%. Further, the “subjects reporting TEAEs not related to the study drug” value in [8] (MAD part (11 of 18)) is 61.1%. In addition, the “severity of TEAEs” value in data set [8] (MAD part, all TEAEs) was “mild severity”. The “total number of TEAEs” value in data set [8] (all IMB-1018972 subjects of MAD part) was found to be 35. For the same compound, the “clinical laboratory, vital signs, 12-lead ECG, telemetry, physical examination” value in data set [9] (single and multiple oral doses, IR formulation) is reported as “no findings of clinical relevance”. In addition, in data set [9] (whole study), the deaths entry was “no deaths reported”. The “effect of dosing under fed conditions on TEAEs” value in [5] (FE arm of SAD part, 150 mg) is “appeared to attenuate the number and incidence of TEAEs”. Further, in [5] (SAD part), the “TEAEs of flushing of mild severity” value is 1, the “TEAEs of flushing of moderate severity” value was 5, the “number of TEAEs of flushing (most common AEs)” value came out at 6 and the “severe TEAEs” value is listed as “No severe TEAEs were reported”. Further, in data set [5] (SAD part (6 subjects)), the “subjects reporting drug-related TEAEs of flushing” value is recorded as 25%. Besides, the “subjects reporting drug-related TEAEs” value in [5] (SAD part (7 of 24)) came to 29.2%. In data set [5] (Subject 131, 150 mg fasted, FE arm Group A4, moderate, unlikely related), the “serious adverse event leading to withdrawal” value is listed as “influenza like illness”. Further, the “total number of TEAEs” value in data set [5] (all IMB-1018972 subjects of SAD part) came to 45. In addition, in [5] (following 50 mg and 150 mg (fasted only group)), the “drug-related TEAEs” value is listed as “No drug-related TEAEs were reported”. For the same compound, in data set [5] (single dose 150 mg fasted, FE arm (n=6)), the “subjects who reported flushing” value is listed as 2.

With `COc1ccc(CN2CCN(CCO)CC2)c(OC)c1OC` [IMB-1028814], the “dose proportionality for Cmax, AUC0-t, AUC0-inf (95% CIs of slopes included 1)” value in “clinical [2]” (IMB-1018972 single-dose range 50 to 400 mg, fasted) is recorded as “no evidence of a deviation from dose proportionality”. For the same compound, the median tmax result in the data set “clinical [2]” (plasma, single-dose range 50 mg to 400 mg IMB-1018972 IR, fasted) was “around 1 hours”; in the data set “clinical [3]” (setting [11]) it was 1 h; in the data set “clinical [3]” (setting [12]), 2 h. For the same compound, the “AUC0-8×2” value in [7] (female dogs) is recorded as 652,849 ng.h/mL; in data set [7] (male dogs), 417,733 ng.h/mL. For the same compound, the “state of concentrations at Day 14 dose (trough concentrations, visual inspection)” value in data set [10] (150 mg fed and 50 mg fed q12h) is recorded as “steady-state conditions”. The “geometric mean Cmax higher on Day 1 in MAD part than after single dose in SAD part” value in data set [10] (150 mg fed in both parts) was 97%. In addition, the “geometric mean t1/2” value in data set [10] (Day 14 after 50 mg q12h fed) worked out at 2.79 h; in [10] (Day 14 after 150 mg q12h fed), 4.48 h.
